Test results: ChEMBL document CHEMBL5329193, “Targeting Mycobacterium tuberculosis iron-scavenging tools: a recent update on siderophores inhibitors” (RSC Med Chem, 2023)
Values after ≈ are worked out from the molar mass of the structure shown.

Key:
[1] = tested on: Mycobacterium tuberculosis variant bovis; experiment: Antimycobacterial activity against Mycobacterium bovis BCG assessed as reduction in microbial growth incubated for 15 days by resazurin based reduction assay; type: functional; settings: 360 h, time 15 day
[2] = tested on: Mycobacterium tuberculosis variant bovis; experiment: Antimycobacterial activity against Mycobacterium bovis BCG ATCC 35734 assessed as inhibition of bacterial growth incubated for 5 days by broth microdilution method; type: functional, organism-based; settings: BCG ATCC 35734, 120 h
[3] = tested on: Mycobacterium tuberculosis variant bovis; experiment: Antitubercular activity against Mycobacterium bovis BCG assessed as bacterial growth inhibition incubated for 15 days by resazurin based reduction assay; type: functional; settings: 360 h, time 15 day

`N#Cc1cc(OCCOc2ccccc2)cc(-c2ccc(C(=O)O)o2)c1` showed an MIC99 [1] of 63 µM and an IC50 [2] of 12.1 µM.
Work on `N#Cc1cc(-c2ccc(C(=O)O)o2)cc(C(F)(F)F)c1` yielded an MIC99 [3] of 125 µM (≈ 35.1 µg/mL).
